Results from US10131652B2, “Pyrimidinyloxy benzene derivatives as herbicides” (E. I. DU PONT DE NEMOURS AND COMPANY, priority 2014, dated 2018).

What was measured:
Assay type in all cases: in vivo
kochia (Kochia scoparia) = assay: Test B pre-/postemergence plant response
In short: (§1)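 Visual injury scores on a 0–100 scale (100 = complete control) relative to untreated plants, taken about 10 days post-treatment in greenhouse. Treatments were a directed preemergence soil spray and a postemergence spray at one- to two-leaf stage, using surfactant-containing solvent formulation.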

[1] = test system: ragweed (common ragweed, Ambrosia elatior); assay: Test B pre-/postemergence plant response
In short: as §1

[2] = test system: Italian ryegrass (Lolium multiflorum); assay: Test B pre-/postemergence plant response
In short: as §1

rice (Oryza sativa) = assay: Test C flooded paddy test plant response; conditions: Flood, 250 g ai/ha; scale of 0 to 100 where 0 is no effect and 100 is complete control; 13 to 15 days
In short: (§2)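 Plants grown to 2-leaf stage, flooded 3 cm above soil; compounds applied directly into paddy water, depth kept throughout. Visual rating versus controls after 13 to 15 days in greenhouse, 0 (no effect) to 100 (complete control).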

[3] = test system: small-flower umbrella sedge (Cyperus difformis); assay: Test C flooded paddy test plant response; conditions: Flood, 250 g ai/ha; scale of 0 to 100 where 0 is no effect and 100 is complete control; 13 to 15 days
In short: as §2

[4] = test system: ducksalad (Heteranthera limosa); assay: Test C flooded paddy test plant response; conditions: Flood, 250 g ai/ha; scale of 0 to 100 where 0 is no effect and 100 is complete control; 13 to 15 days
In short: as §2

[5] = test system: barnyardgrass (Echinochloa crus-galli); assay: Test C flooded paddy test plant response; conditions: Flood, 250 g ai/ha; scale of 0 to 100 where 0 is no effect and 100 is complete control; 13 to 15 days
In short: as §2

[6] = test system: velvetleaf (Abutilon theophrasti); assay: Test D pre-/postemergence plant response; conditions: Postemergence
In short: (§3)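 Two application timings were run together: preemergence onto seeded loam–sand pots, and postemergence onto 1- to 4-leaf plants (2 to 18 cm) in peat/vermiculite medium with starter nutrients. Formulation was a non-phytotoxic solvent with surfactant. Ratings, 0 to 100, were made visually versus controls after 13 to 15 greenhouse days.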

[7] = test system: oilseed rape (Brassica napus); assay: Test D pre-/postemergence plant response; conditions: Postemergence
In short: as §3

[8] = test system: giant foxtail (Setaria faberii); assay: Test D pre-/postemergence plant response; conditions: Postemergence; for Foxtail, Giant plant response rating: scale 0 to 100 (0 no effect, 100 complete control); for Plant response rating, Foxtail, Giant: scale 0 to 100, 0 no effect, 100 complete control
In short: as §3

[9] = test system: johnsongrass (Sorghum halepense); assay: Test D pre-/postemergence plant response; conditions: Postemergence; for Johnsongrass plant response rating: 31 g ai/ha, scale 0 to 100 (0 no effect, 100 complete control); for Plant response rating, Johnsongrass: scale 0 to 100, 0 no effect, 100 complete control
In short: as §3

[10] = test system: pigweed (Amaranthus retroflexus); assay: Test D pre-/postemergence plant response; conditions: Postemergence
In short: as §3

[11] = test system: blackgrass (Alopecurus myosuroides); assay: Test D pre-/postemergence plant response; conditions: Postemergence; for Blackgrass plant response rating: scale 0 to 100 (0 no effect, 100 complete control); for Plant response rating, Blackgrass: scale 0 to 100, 0 no effect, 100 complete control
In short: as §3

[12] = test system: barnyardgrass (Echinochloa crus-galli); assay: Test D pre-/postemergence plant response; conditions: Postemergence; for Barnyardgrass plant response rating: scale 0 to 100 (0 no effect, 100 complete control); for Plant response rating, Barnyardgrass: scale 0 to 100, 0 no effect, 100 complete control
In short: as §3

[13] = 125 g ai/ha, postemergence, 0 to 100 scale, 0 no effect, 100 complete control
[14] = Postemergence, 500 g ai/ha, 0 to 100 scale (0 no effect, 100 complete control)
[15] = Preemergence, 125 g ai/ha, 0 to 100 scale (0 no effect, 100 complete control)
[16] = Preemergence, 500 g ai/ha, 0 to 100 scale where 0 is no effect and 100 is complete control
[17] = 31 g ai/ha, scale 0 to 100 (0 no effect, 100 complete control)
[18] = 62 g ai/ha, scale 0 to 100, 0 no effect, 100 complete control
[19] = 125 g ai/ha, scale 0 to 100, 0 no effect, 100 complete control
[20] = 31 g ai/ha, Preemergence, 0 to 100 scale where 0 is no effect and 100 is complete control
[21] = Postemergence, 31 g ai/ha, 0 to 100 scale (0 no effect, 100 complete control)

## FC(F)(F)c1cc(-c2c(Cl)cccc2Oc2ncc(Cl)cn2)no1 [Compound 169]
Kochia (Kochia scoparia); [13]
  Plant response rating, Kochia: 90
Kochia (Kochia scoparia); [14]
  Plant response rating, Kochia: 90
Kochia (Kochia scoparia); [15]
  Kochia plant response rating: 70
Kochia (Kochia scoparia); [16]
  Plant response rating, Kochia: 90
[1]; [13]
  Plant response rating, Ragweed: 20
[1]; [14]
  Plant response rating, Ragweed: 30
[1]; [15]
  Ragweed plant response rating: 10
[1]; [16]
  Plant response rating, Ragweed: 20
[2]; [13]
  Plant response rating, Ryegrass, Italian: 20
[2]; [14]
  Plant response rating, Ryegrass, Italian: 50
[2]; [15]
  Ryegrass, Italian plant response rating: 0
[2]; [16]
  Plant response rating, Ryegrass, Italian: 20
Rice (Oryza sativa)
  Rice plant response rating: 0
[3]
  Sedge, Umbrella plant response rating: 0
[4]
  Ducksalad plant response rating: 0
[5]
  Barnyardgrass plant response rating: 0
[6]; [17]
  Velvetleaf plant response rating: 10
[6]; [18]
  Plant response rating, Velvetleaf: 20
[6]; [19]
  Plant response rating, Velvetleaf: 30
[7]; [17]
  Oilseed Rape plant response rating: 5
[7]; [18]
  Plant response rating, Oilseed Rape: 10
[7]; [19]
  Plant response rating, Oilseed Rape: 60
[8]; 16 g ai/ha
  Foxtail, Giant plant response rating: 0
[8]; 31 g ai/ha
  Foxtail, Giant plant response rating: 5
[8]; 62 g ai/ha
  Plant response rating, Foxtail, Giant: 25
[8]; 125 g ai/ha
  Plant response rating, Foxtail, Giant: 55
[9]
  Johnsongrass plant response rating: 0
[9]; 62 g ai/ha
  Plant response rating, Johnsongrass: 0
[9]; 125 g ai/ha
  Plant response rating, Johnsongrass: 5
[10]; [17]
  Pigweed plant response rating: 80
[10]; [18]
  Plant response rating, Pigweed: 80
[10]; [19]
  Plant response rating, Pigweed: 98
[11]; 16 g ai/ha
  Blackgrass plant response rating: 0
[11]; 31 g ai/ha
  Blackgrass plant response rating: 0
[11]; 62 g ai/ha
  Plant response rating, Blackgrass: 0
[11]; 125 g ai/ha
  Plant response rating, Blackgrass: 25
[12]; 16 g ai/ha
  Barnyardgrass plant response rating: 5
[12]; 31 g ai/ha
  Barnyardgrass plant response rating: 5
[12]; 62 g ai/ha
  Plant response rating, Barnyardgrass: 5
[12]; 125 g ai/ha
  Plant response rating, Barnyardgrass: 5

## FC(F)(F)c1cc(-c2c(Br)cccc2Oc2ncc(Cl)cn2)no1 [Compound 170]
Kochia (Kochia scoparia); [13]
  Plant response rating, Kochia: 70
Kochia (Kochia scoparia); [14]
  Plant response rating, Kochia: 100
Kochia (Kochia scoparia); [15]
  Kochia plant response rating: 30
Kochia (Kochia scoparia); [16]
  Plant response rating, Kochia: 80
[1]; [13]
  Plant response rating, Ragweed: 10
[1]; [14]
  Plant response rating, Ragweed: 50
[1]; [15]
  Ragweed plant response rating: 20
[1]; [16]
  Plant response rating, Ragweed: 60
[2]; [13]
  Plant response rating, Ryegrass, Italian: 0
[2]; [14]
  Plant response rating, Ryegrass, Italian: 20
[2]; [15]
  Ryegrass, Italian plant response rating: 0
[2]; [16]
  Plant response rating, Ryegrass, Italian: 20
Rice (Oryza sativa)
  Rice plant response rating: 0
[3]
  Sedge, Umbrella plant response rating: 0
[4]
  Ducksalad plant response rating: 0
[5]
  Barnyardgrass plant response rating: 0
[6]; [17]
  Velvetleaf plant response rating: 5
[6]; [18]
  Plant response rating, Velvetleaf: 25
[6]; [19]
  Plant response rating, Velvetleaf: 25
[7]; [17]
  Oilseed Rape plant response rating: 5
[7]; [18]
  Plant response rating, Oilseed Rape: 40
[7]; [19]
  Plant response rating, Oilseed Rape: 25
[8]; 16 g ai/ha
  Foxtail, Giant plant response rating: 5
[8]; 31 g ai/ha
  Foxtail, Giant plant response rating: 30
[8]; 62 g ai/ha
  Plant response rating, Foxtail, Giant: 40
[8]; 125 g ai/ha
  Plant response rating, Foxtail, Giant: 40
[9]
  Johnsongrass plant response rating: 0
[9]; 62 g ai/ha
  Plant response rating, Johnsongrass: 0
[9]; 125 g ai/ha
  Plant response rating, Johnsongrass: 5
[10]; [17]
  Pigweed plant response rating: 90
[10]; [18]
  Plant response rating, Pigweed: 98
[10]; [19]
  Plant response rating, Pigweed: 98
[11]; 16 g ai/ha
  Blackgrass plant response rating: 0
[11]; 31 g ai/ha
  Blackgrass plant response rating: 0
[11]; 62 g ai/ha
  Plant response rating, Blackgrass: 5
[11]; 125 g ai/ha
  Plant response rating, Blackgrass: 5
[12]; 16 g ai/ha
  Barnyardgrass plant response rating: 0
[12]; 31 g ai/ha
  Barnyardgrass plant response rating: 0
[12]; 62 g ai/ha
  Plant response rating, Barnyardgrass: 5
[12]; 125 g ai/ha
  Plant response rating, Barnyardgrass: 5

## CC(F)(F)c1cc(-c2ccccc2Oc2ncc(Cl)cn2)on1 [Compound 178]
Kochia (Kochia scoparia); [20]
  Plant response rating, Kochia: 10
Kochia (Kochia scoparia); [13]
  Plant response rating, Kochia: 100
Kochia (Kochia scoparia); [21]
  Plant response rating, Kochia: 80
Kochia (Kochia scoparia); [15]
  Kochia plant response rating: 20
[1]; [20]
  Plant response rating, Ragweed: 0
[1]; [13]
  Plant response rating, Ragweed: 10
[1]; [21]
  Plant response rating, Ragweed: 10
[1]; [15]
  Ragweed plant response rating: 0
[2]; [20]
  Plant response rating, Ryegrass, Italian: 0
[2]; [13]
  Plant response rating, Ryegrass, Italian: 30
[2]; [21]
  Plant response rating, Ryegrass, Italian: 0
[2]; [15]
  Ryegrass, Italian plant response rating: 10
Rice (Oryza sativa)
  Rice plant response rating: 0
[3]
  Sedge, Umbrella plant response rating: 85
[4]
  Ducksalad plant response rating: 90
[5]
  Barnyardgrass plant response rating: 40
[6]; 16 g ai/ha
  Plant response rating (scale 0 to 100), Velvetleaf: 60
[6]; [17]
  Velvetleaf plant response rating: 40
[6]; [18]
  Velvetleaf plant response rating: 60
[6]; [19]
  Plant response rating, Velvetleaf: 75
[7]; 16 g ai/ha
  Plant response rating (scale 0 to 100), Oilseed Rape: 35
[7]; [17]
  Oilseed Rape plant response rating: 80
[7]; [18]
  Oilseed Rape plant response rating: 80
[7]; [19]
  Plant response rating, Oilseed Rape: 95
[8]; 16 g ai/ha
  Plant response rating (scale 0 to 100), Foxtail, Giant: 0
[8]; 31 g ai/ha
  Foxtail, Giant plant response rating: 5
[8]; 62 g ai/ha
  Plant response rating, Foxtail, Giant: 5
[8]; 125 g ai/ha
  Plant response rating, Foxtail, Giant: 25
[9]; 16 g ai/ha
  Plant response rating (scale 0 to 100), Johnsongrass: 10
[9]
  Johnsongrass plant response rating: 10
[9]; 62 g ai/ha
  Plant response rating, Johnsongrass: 15
[9]; 125 g ai/ha
  Plant response rating, Johnsongrass: 10
[10]; 16 g ai/ha
  Plant response rating (scale 0 to 100), Pigweed: 80
[10]; [17]
  Pigweed plant response rating: 85
[10]; [18]
  Pigweed plant response rating: 85
[10]; [19]
  Plant response rating, Pigweed: 90
[11]; 16 g ai/ha
  Plant response rating (scale 0 to 100), Blackgrass: 0
[11]; 31 g ai/ha
  Blackgrass plant response rating: 5
[11]; 62 g ai/ha
  Plant response rating, Blackgrass: 10
[11]; 125 g ai/ha
  Plant response rating, Blackgrass: 15
[12]; 16 g ai/ha
  Plant response rating (scale 0 to 100), Barnyardgrass: 10
[12]; 31 g ai/ha
  Barnyardgrass plant response rating: 15
[12]; 62 g ai/ha
  Plant response rating, Barnyardgrass: 10
[12]; 125 g ai/ha
  Plant response rating, Barnyardgrass: 20
